According to article PMC9482650, “Quantitative fragmentomics allow affinity mapping of interactomes” (Nature Communications, 2022):
Ends that are not written are not given here.

What was measured:
Assay type in all cases: binding
[1] = target: LIN7C PDZ (Homo sapiens, UniProt Q9NUP9); experiment: Holdup assay; settings: composite holdup affinity; 0.00=below quantification threshold; read-out: COMP pKd (converted)
[2] = target: GIPC1 PDZ (Homo sapiens, UniProt O14908); experiment: Holdup assay; settings: sheet PPI_convert; read-out: affinity to PDZ GIPC1 (converted)
GIPC1 PDZ, sequence (O14908 133-213 limits assumed): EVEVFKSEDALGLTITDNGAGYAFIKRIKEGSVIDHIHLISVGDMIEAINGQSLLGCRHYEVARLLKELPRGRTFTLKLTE
Text: Supplement 41467_2022_33018_MOESM4_ESM.xlsx, sheet "PPI_convert" | column: GIPC1

[3] = target: SNTG2 PDZ (Homo sapiens, UniProt Q9NY99); experiment: Holdup assay; settings: composite holdup affinity; 0.00=below quantification threshold; read-out: COMP pKd (converted)
SNTG2 PDZ, sequence (Q9NY99 73-156 limits assumed): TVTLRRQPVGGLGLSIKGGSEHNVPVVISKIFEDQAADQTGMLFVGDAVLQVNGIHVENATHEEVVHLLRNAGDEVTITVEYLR

[4] = target: MAGI2_3 PDZ (Homo sapiens, UniProt Q86UL8); experiment: Holdup assay; settings: composite holdup affinity; 0.00=below quantification threshold; read-out: COMP pKd (converted)
MAGI2_3 PDZ, sequence (Q86UL8 605-683 limits assumed): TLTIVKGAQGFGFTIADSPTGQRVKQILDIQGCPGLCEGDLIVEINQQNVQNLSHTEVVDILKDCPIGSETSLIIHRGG

[5] = target: PTPN3 PDZ (Homo sapiens, UniProt P26045); experiment: Holdup assay; settings: composite holdup affinity; 0.00=below quantification threshold; read-out: COMP pKd (converted)
PTPN3 PDZ, sequence (P26045 510-582 limits assumed): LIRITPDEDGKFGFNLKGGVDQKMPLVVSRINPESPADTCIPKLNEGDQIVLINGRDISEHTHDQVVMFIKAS

[6] = target: NOS1 PDZ (Homo sapiens, UniProt P29475); experiment: Holdup assay; settings: composite holdup affinity; 0.00=below quantification threshold; read-out: COMP pKd (converted)
NOS1 PDZ, sequence (P29475 17-99 limits assumed): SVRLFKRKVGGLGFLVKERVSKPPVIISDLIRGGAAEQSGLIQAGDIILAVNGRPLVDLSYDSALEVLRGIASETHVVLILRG

[7] = target: LAP2 PDZ (Homo sapiens, UniProt Q96RT1); experiment: Holdup assay; settings: composite holdup affinity; 0.00=below quantification threshold; read-out: COMP pKd (converted)
LAP2 PDZ, sequence (Q96RT1 1321-1410 limits assumed): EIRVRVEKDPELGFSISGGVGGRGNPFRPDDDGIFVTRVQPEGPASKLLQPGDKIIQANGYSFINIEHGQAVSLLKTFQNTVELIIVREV

[8] = target: SNTB1 PDZ (Homo sapiens, UniProt Q13884); experiment: Holdup assay; settings: composite holdup affinity; 0.00=below quantification threshold; read-out: COMP pKd (converted)
SNTB1 PDZ, sequence (Q13884 112-195 limits assumed): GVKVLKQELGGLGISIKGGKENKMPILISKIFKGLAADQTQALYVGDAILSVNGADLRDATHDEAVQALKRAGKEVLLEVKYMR

[9] = target: DLG1_3 PDZ (Homo sapiens, UniProt Q12959); experiment: Holdup assay; settings: composite holdup affinity; 0.00=below quantification threshold; read-out: COMP pKd (converted)
[10] = target: GRIP2_7 PDZ (Homo sapiens, UniProt Q9C0E4); experiment: Holdup assay; settings: composite holdup affinity; 0.00=below quantification threshold; read-out: COMP pKd (converted)
GRIP2_7 PDZ, sequence (Q9C0E4 941-1023 limits assumed): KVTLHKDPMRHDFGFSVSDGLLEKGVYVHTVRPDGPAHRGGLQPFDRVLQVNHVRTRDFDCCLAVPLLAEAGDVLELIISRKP

[11] = target: T1, MAST2 PDZ (Homo sapiens, UniProt Q6P0Q8); experiment: biochemical; settings: composite holdup affinity; 0.00=below quantification threshold; read-out: COMP pKd (converted)
T1 sequence (Q6P0Q8 1104-1192 limits assumed): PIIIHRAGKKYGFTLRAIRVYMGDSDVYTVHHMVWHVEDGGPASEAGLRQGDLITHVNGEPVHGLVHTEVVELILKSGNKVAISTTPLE

[12] = target: MAGI2_2 PDZ (Homo sapiens, UniProt Q86UL8); experiment: Holdup assay; settings: composite holdup affinity; 0.00=below quantification threshold; read-out: COMP pKd (converted)
MAGI2_2 PDZ, sequence (Q86UL8 426-510 limits assumed): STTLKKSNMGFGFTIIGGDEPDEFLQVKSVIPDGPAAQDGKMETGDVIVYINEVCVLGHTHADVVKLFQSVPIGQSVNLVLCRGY

[13] = target: MAGI3_2 PDZ (Homo sapiens, UniProt Q5TCQ9); experiment: Holdup assay; settings: composite holdup affinity; 0.00=below quantification threshold; read-out: COMP pKd (converted)
MAGI3_2 PDZ, sequence (Q5TCQ9 410-492 limits assumed): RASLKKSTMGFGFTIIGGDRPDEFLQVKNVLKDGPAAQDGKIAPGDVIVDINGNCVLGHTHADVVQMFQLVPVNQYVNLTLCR

[14] = target: MAST1 PDZ (Homo sapiens, UniProt Q9Y2H9); experiment: Holdup assay; settings: composite holdup affinity; 0.00=below quantification threshold; read-out: COMP pKd (converted)
MAST1 PDZ, sequence (Q9Y2H9 967-1055 limits assumed): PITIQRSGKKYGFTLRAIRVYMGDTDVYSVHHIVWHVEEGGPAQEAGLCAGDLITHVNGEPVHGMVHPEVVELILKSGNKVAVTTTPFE

[15] = target: SNTG1 PDZ (Homo sapiens, UniProt Q9NSN8); experiment: Holdup assay; settings: composite holdup affinity; 0.00=below quantification threshold; read-out: COMP pKd (converted)
SNTG1 PDZ, sequence (Q9NSN8 57-140 limits assumed): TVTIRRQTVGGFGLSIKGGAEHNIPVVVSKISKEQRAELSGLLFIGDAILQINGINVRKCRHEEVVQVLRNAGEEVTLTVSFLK

[16] = target: RHPN1 PDZ (Homo sapiens, UniProt Q8TCX5); experiment: Holdup assay; settings: composite holdup affinity; 0.00=below quantification threshold; read-out: COMP pKd (converted)
RHPN1 PDZ, sequence (Q8TCX5 513-592 limits assumed): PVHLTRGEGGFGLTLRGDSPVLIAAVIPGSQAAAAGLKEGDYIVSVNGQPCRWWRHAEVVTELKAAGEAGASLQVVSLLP

[17] = target: DLG3_1 PDZ (Homo sapiens, UniProt Q92796); experiment: Holdup assay; settings: composite holdup affinity; 0.00=below quantification threshold; read-out: COMP pKd (converted)
DLG3_1 PDZ, sequence (Q92796 130-217 limits assumed): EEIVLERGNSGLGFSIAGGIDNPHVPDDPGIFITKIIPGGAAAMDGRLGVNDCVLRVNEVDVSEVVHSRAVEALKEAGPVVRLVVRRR

[18] = target: DLG1_1 PDZ (Homo sapiens, UniProt Q12959); experiment: Holdup assay; settings: composite holdup affinity; 0.00=below quantification threshold; read-out: COMP pKd (converted)
[19] = target: FRMPD2_2 PDZ (Homo sapiens, UniProt Q68DX3); experiment: Holdup assay; settings: composite holdup affinity; 0.00=below quantification threshold; read-out: COMP pKd (converted)
FRMPD2_2 PDZ, sequence (Q68DX3 950-1035 limits assumed): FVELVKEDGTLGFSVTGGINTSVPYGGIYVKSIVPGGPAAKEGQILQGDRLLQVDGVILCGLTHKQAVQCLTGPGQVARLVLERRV

[20] = target: ARHGEF12 PDZ (Homo sapiens, UniProt Q9NZN5); experiment: Holdup assay; settings: composite holdup affinity; 0.00=below quantification threshold; read-out: COMP pKd (converted)
ARHGEF12 PDZ, sequence (Q9NZN5 72-151 limits assumed): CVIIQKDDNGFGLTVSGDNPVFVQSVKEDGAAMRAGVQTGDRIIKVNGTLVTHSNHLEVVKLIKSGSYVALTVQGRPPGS

[21] = target: DFNB31_1 PDZ (Homo sapiens, UniProt Q9P202); experiment: Holdup assay; settings: composite holdup affinity; 0.00=below quantification threshold; read-out: COMP pKd (converted)
DFNB31_1 PDZ, sequence (Q9P202 140-223 limits assumed): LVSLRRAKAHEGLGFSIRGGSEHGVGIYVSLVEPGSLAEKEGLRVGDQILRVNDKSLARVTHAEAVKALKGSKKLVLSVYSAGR

[22] = target: PDZRN4_1 PDZ (Homo sapiens, UniProt Q6ZMN7); experiment: Holdup assay; settings: composite holdup affinity; 0.00=below quantification threshold; read-out: COMP pKd (converted)
PDZRN4_1 PDZ, sequence (Q6ZMN7 224-314 limits assumed): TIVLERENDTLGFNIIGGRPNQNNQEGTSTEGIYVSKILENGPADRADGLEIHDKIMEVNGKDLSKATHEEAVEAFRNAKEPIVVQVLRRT

[23] = target: PDZD2_2 PDZ (Homo sapiens, UniProt O15018); experiment: Holdup assay; settings: composite holdup affinity; 0.00=below quantification threshold; read-out: COMP pKd (converted)
PDZD2_2 PDZ, sequence (O15018 334-419 limits assumed): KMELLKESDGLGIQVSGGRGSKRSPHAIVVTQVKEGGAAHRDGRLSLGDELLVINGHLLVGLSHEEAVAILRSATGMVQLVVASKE

[24] = target: GOPC PDZ (Homo sapiens, UniProt Q9HD26); experiment: Holdup assay; settings: composite holdup affinity; 0.00=below quantification threshold; read-out: COMP pKd (converted)
[25] = target: MPP1 PDZ (Homo sapiens, UniProt Q00013); experiment: Holdup assay; settings: sheet PPI_convert; read-out: affinity to PDZ MPP1 (converted)
MPP1 PDZ, sequence (Q00013 71-152 limits assumed): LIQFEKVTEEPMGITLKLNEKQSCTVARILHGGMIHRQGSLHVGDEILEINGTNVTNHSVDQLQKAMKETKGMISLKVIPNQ

[26] = target: DLG4_3 PDZ (Homo sapiens, UniProt P78352); experiment: Holdup assay; settings: composite holdup affinity; 0.00=below quantification threshold; read-out: COMP pKd (converted)
DLG4_3 PDZ, sequence (P78352 313-393 limits assumed): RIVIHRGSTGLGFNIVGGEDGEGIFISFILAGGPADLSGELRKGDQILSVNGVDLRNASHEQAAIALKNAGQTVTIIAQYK

[27] = target: SCRIB_3 PDZ (Homo sapiens, UniProt Q14160); experiment: Holdup assay; settings: composite holdup affinity; 0.00=below quantification threshold; read-out: COMP pKd (converted)
SCRIB_3 PDZ, sequence (Q14160 1004-1093 limits assumed): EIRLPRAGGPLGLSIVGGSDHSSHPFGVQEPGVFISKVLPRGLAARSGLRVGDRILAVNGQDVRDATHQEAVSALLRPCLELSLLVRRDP

[28] = target: ARHGEF11 PDZ (Homo sapiens, UniProt O15085); experiment: Holdup assay; settings: composite holdup affinity; 0.00=below quantification threshold; read-out: COMP pKd (converted)
ARHGEF11 PDZ, sequence (O15085 47-126 limits assumed): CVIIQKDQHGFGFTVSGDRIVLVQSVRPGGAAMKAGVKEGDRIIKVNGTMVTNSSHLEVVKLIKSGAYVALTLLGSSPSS

[29] = target: T2, TX1BP3 PDZ (Homo sapiens, UniProt O14907); experiment: Holdup assay; settings: composite holdup affinity; 0.00=below quantification threshold; read-out: COMP pKd (converted)
T2 sequence (O14907 15-112 limits assumed): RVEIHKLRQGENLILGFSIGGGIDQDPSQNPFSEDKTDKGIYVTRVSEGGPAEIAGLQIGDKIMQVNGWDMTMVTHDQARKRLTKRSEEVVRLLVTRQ

[30] = target: PDZRN3_1 PDZ (Homo sapiens, UniProt Q9UPQ7); experiment: Holdup assay; settings: composite holdup affinity; 0.00=below quantification threshold; read-out: COMP pKd (converted)
PDZRN3_1 PDZ, sequence (Q9UPQ7 249-339 limits assumed): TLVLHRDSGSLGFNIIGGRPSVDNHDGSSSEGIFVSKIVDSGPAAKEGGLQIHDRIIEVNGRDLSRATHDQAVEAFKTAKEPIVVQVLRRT

[31] = target: APBA1_2 PDZ (Homo sapiens, UniProt Q02410); experiment: Holdup assay; settings: composite holdup affinity; 0.00=below quantification threshold; read-out: COMP pKd (converted)
APBA1_2 PDZ, sequence (Q02410 747-822 limits assumed): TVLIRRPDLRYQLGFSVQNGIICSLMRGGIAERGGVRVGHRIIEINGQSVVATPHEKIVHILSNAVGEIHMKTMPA

[32] = target: GIPC2 PDZ (Homo sapiens, UniProt Q8TF65); experiment: Holdup assay; settings: composite holdup affinity; 0.00=below quantification threshold; read-out: COMP pKd (converted)
GIPC2 PDZ, sequence (Q8TF65 117-197 limits assumed): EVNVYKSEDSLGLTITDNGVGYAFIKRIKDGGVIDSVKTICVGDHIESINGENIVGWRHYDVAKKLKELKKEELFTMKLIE

[33] = target: SCRIB_1 PDZ (Homo sapiens, UniProt Q14160); experiment: Holdup assay; settings: composite holdup affinity; 0.00=below quantification threshold; read-out: COMP pKd (converted)
SCRIB_1 PDZ, sequence (Q14160 728-815 limits assumed): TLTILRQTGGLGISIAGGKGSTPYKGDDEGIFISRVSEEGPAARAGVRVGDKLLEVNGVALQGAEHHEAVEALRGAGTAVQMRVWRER

[34] = target: PDZD2_4 PDZ (Homo sapiens, UniProt O15018); experiment: Holdup assay; settings: sheet PPI_convert; read-out: affinity to PDZ PDZD2_4 (converted)
PDZD2_4 PDZ, sequence (O15018 728-813 limits assumed): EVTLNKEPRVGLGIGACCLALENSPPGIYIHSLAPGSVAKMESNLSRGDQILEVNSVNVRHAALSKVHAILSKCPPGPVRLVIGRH

[35] = target: DLG1_2 PDZ (Homo sapiens, UniProt Q12959); experiment: Holdup assay; settings: composite holdup affinity; 0.00=below quantification threshold; read-out: COMP pKd (converted)
[36] = target: PDZD7_3 PDZ (Homo sapiens, UniProt Q9H5P4); experiment: Holdup assay; settings: composite holdup affinity; 0.00=below quantification threshold; read-out: COMP pKd (converted)
PDZD7_3 PDZ, sequence (Q9H5P4 862-934 limits assumed): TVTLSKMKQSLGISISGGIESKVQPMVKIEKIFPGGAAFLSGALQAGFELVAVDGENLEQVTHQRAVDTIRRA

[37] = target: MAGI2_4 PDZ (Homo sapiens, UniProt Q86UL8); experiment: Holdup assay; settings: composite holdup affinity; 0.00=below quantification threshold; read-out: COMP pKd (converted)
MAGI2_4 PDZ, sequence (Q86UL8 778-860 limits assumed): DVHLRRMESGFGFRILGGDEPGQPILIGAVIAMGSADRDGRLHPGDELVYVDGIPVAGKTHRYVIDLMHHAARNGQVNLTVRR

LIN7C PDZ, sequence (Q9NUP9 93-175 limits assumed): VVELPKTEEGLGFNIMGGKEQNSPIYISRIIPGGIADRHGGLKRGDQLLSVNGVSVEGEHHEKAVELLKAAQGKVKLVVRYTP

## RHTTSTETAV [HPV30-E6]
[1]
  Kd: 64.6 µM
[2]
  Kd: 20 µM
[3]
  Kd: 21.4 µM
[4]
  Kd: 26.9 µM
[5]
  Kd: 7.41 µM
[6]
  Kd: 23.4 µM
[7]
  Kd: 34.7 µM
[8]
  Kd: 7.94 µM
[9]
  Kd: 40.7 µM
[10]
  Kd: 145 µM
[11]
  Kd: 3.02 µM
[12]
  Kd: 9.12 µM
[13]
  Kd: 4.37 µM
[14]
  Kd: 21.9 µM
[15]
  Kd: 11.5 µM
[16]
  Kd: 83.2 µM
[17]
  Kd: 35.5 µM
[18]
  Kd: 11.7 µM
[19]
  Kd: 58.9 µM
[20]
  Kd: 63.1 µM
[21]
  Kd: 53.7 µM
[22]
  Kd: 29.5 µM
[23]
  Kd: 38 µM
[24]
  Kd: 72.4 µM
[25]
  Kd: 6.76 µM
[26]
  Kd: 44.7 µM
[27]
  Kd: 9.55 µM
[28]
  Kd: 44.7 µM
[29]
  Kd: 22.4 µM
[30]
  Kd: 20.9 µM
[31]
  Kd: 58.9 µM
[32]
  Kd: 110 µM
[33]
  Kd: 17.4 µM
[34]
  Kd: 16.6 µM
[35]
  Kd: 2.34 µM
[36]
  Kd: 79.4 µM
[37]
  Kd: 85.1 µM

## RTRQRNETQV [HPV51-E6]
[1]
  Kd: 145 µM
[2]
  Kd: 7.94 µM
[3]
  Kd: 60.3 µM
[4]
  Kd: 95.5 µM
[5]
  Kd: 41.7 µM
[6]
  Kd: 123 µM
[7]
  Kd: 204 µM
[8]
  Kd: 81.3 µM
[9]
  Kd: 28.8 µM
[10]
  Kd: 331 µM
[11]
  Kd: 5.37 µM
[12]
  Kd: 0.219 µM
[13]
  Kd: 1.48 µM
[14]
  Kd: 58.9 µM
[15]
  Kd: 105 µM
[16]
  Kd: 200 µM
[17]
  Kd: 52.5 µM
[18]
  Kd: 16.6 µM
[19]
  Kd: 389 µM
[20]
  Kd: 186 µM
[21]
  Kd: 339 µM
[22]
  Kd: 69.2 µM
[23]
  Kd: 263 µM
[24]
  Kd: 191 µM
[25]
  Kd: 1.55 µM
[26]
  Kd: 17.8 µM
[27]
  Kd: 67.6 µM
[28]
  Kd: 204 µM
[29]
  Kd: 74.1 µM
[30]
  Kd: 87.1 µM
[31]
  Kd: 275 µM
[32]
  Kd: 234 µM
[33]
  Kd: 27.5 µM
[34]
  Kd: 45.7 µM
[35]
  Kd: 7.41 µM
[36]
  Kd: 132 µM
[37]
  Kd: 39.8 µM
